Measured values from paper PMC5465826 (Research in Pharmaceutical Sciences, 2017).
Several values for one entry are separate records, joined by “and”; a condition that tells them apart may be missing. Equal entries are not always repeated. Where two headings read alike, the source gives them in different places.

What was measured:
[1] = humans, 5 g oral dose of a botanical mixture of 7 herbs; ref [28]; cited from earlier work
[2] = type: in vivo, rat
[3] = intravenous 20 mg/kg, achiral, approximate; ref [25][26]; cited from earlier work
[4] = ref [18][19][21][25][26][27], cited from earlier work
[5] = rat serum, IV 20 mg/kg racemic liquiritigenin, mean ± SEM, n = 4, 20 mg/kg
[6] = oral, given alone or in a mixture (exact dose unknown), approximate

| time liquiritigenin could be measured in serum ([2]; rat serum) | time liquiritigenin could be measured (detected) in urine ([2]; rat urine) | Vss ([2]; rat, IV 20 mg/kg racemic liquiritigenin, mean ± SEM, n = 4, 20 mg/kg) [L/kg] | Structure (SMILES) | fraction excreted unchanged in the urine (fe %) [1] [%] | t1/2 serum [2, 5] | AUC [3] [µg·min/mL] | clearances [3] [mL/min/kg] | plasma half-lives [3] [min] | bioavailability ([4]; Kang, et al., oral doses of 20-50 mg/kg) | AUC [4, 6] [ng·h/mL] | plasma half-lives [4, 6] [h] |
| --- | --- | --- | --- | --- | --- | --- | --- | --- | --- | --- | --- |
| – | – | – | O=C1C[C@@H](c2ccc(O)cc2)Oc2cc(O)ccc21 [S-liquiritigenin] | 36.2 ± 19.0 | – | – | – | – | – | – | – |
| – | – | – | O=C1C[C@H](c2ccc(O)cc2)Oc2cc(O)ccc21 [R-liquiritigenin] | 50.9 ± 21.6 | 32.59 ± 4.26 min | – | – | – | – | – | – |
| only an hour | up to 70 h | 2.7 to 4.6 | O=C1C[C@@H](c2ccc(O)cc2)Oc2cc(O)ccc21 [liquiritigenin] | – | 12 to 30 min and 15 to 32.4 min and 15 to 25.8 min | 290 to 410 | 50 to 70 | 5 to 8 | 3-7% | 19 to 6594 | 3 to 11 |
